The source of these data is ChEMBL document CHEMBL3421602, “Small molecule discoidin domain receptor kinase inhibitors and potential medical applications” (J Med Chem, 2015).

Experiment [1] concerns the target T1, Discoidin domain-containing receptor 2 (Homo sapiens, UniProt Q16832).
T1 sequence (Q16832 whole entry): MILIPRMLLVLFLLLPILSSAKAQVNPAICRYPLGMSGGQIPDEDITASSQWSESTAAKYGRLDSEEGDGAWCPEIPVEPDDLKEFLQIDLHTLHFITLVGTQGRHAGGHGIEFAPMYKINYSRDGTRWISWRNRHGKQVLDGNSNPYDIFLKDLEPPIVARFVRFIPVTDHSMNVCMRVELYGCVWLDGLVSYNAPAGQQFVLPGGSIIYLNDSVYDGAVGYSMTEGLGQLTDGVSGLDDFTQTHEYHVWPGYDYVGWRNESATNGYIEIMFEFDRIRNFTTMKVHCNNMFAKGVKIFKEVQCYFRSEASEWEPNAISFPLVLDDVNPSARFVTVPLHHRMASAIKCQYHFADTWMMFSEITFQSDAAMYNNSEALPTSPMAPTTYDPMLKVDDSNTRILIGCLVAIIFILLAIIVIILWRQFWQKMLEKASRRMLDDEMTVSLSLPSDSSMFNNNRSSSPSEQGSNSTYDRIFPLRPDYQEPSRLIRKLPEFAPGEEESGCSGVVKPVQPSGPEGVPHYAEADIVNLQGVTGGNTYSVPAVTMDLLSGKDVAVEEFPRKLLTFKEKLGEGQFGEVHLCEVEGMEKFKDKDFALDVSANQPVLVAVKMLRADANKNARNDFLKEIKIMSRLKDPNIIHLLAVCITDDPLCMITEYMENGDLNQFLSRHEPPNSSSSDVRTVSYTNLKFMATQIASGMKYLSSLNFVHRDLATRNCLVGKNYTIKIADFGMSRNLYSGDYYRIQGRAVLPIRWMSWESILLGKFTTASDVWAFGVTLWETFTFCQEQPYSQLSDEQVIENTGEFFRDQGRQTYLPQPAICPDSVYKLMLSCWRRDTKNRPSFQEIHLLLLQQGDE
Briefly: Inhibition of recombinant non-activated DDR2 tyrosine kinase domain (unknown origin) using histone H2B peptide substrate and [32P]ATP incubated for 15 mins.

Experiment [2] addresses T1, Discoidin domain-containing receptor 2. Briefly: Inhibition of recombinant activated DDR2 tyrosine kinase domain (unknown origin) using histone H2B peptide substrate and [32P]ATP incubated for 15 mins.
Experiment [3] has the same target. Description: Binding affinity to DDR2 (unknown origin) by active-site dependent competition binding assay.
The target of experiment [4] is T2, Epithelial discoidin domain-containing receptor 1 (Homo sapiens, UniProt Q08345). Briefly: Inhibition of human DDR1 in doxycycline-stimulated human U2OS cells assessed as inhibition of collagen-1-induced autophosphorylation incubated for 1 hr. The class given is cell-based.
T2 sequence (Q08345 whole entry, the tested form may be a part): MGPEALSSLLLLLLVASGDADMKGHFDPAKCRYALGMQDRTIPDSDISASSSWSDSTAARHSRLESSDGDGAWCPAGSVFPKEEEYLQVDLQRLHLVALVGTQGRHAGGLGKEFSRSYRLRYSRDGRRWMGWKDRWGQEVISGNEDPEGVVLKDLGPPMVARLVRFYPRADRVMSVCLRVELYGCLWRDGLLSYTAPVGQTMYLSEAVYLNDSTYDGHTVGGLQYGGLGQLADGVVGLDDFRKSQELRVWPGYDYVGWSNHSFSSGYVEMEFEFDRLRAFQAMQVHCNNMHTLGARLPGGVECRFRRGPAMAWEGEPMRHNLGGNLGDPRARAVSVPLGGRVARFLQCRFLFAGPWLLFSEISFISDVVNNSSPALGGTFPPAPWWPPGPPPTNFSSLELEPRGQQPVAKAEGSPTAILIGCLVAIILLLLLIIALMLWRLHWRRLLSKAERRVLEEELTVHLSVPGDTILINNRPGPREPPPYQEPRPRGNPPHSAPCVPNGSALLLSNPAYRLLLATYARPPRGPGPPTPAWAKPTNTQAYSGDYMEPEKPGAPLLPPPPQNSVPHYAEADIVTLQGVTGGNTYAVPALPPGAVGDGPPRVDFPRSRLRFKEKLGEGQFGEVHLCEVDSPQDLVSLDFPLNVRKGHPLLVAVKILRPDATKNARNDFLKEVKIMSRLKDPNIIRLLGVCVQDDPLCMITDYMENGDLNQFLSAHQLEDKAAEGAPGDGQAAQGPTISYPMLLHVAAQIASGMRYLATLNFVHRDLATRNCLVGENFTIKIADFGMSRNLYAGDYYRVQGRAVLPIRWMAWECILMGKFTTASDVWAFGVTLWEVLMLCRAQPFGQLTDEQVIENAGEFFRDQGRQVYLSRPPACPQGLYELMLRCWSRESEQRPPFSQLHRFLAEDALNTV
In experiment [5] the target is T2, Epithelial discoidin domain-containing receptor 1. Briefly: Inhibition of human DDR1 kinase domain (601 to 913 residues) expressed in Sf9 cells by enzymatic kinase assay.
Experiment [6] has as its system U2OS. Briefly: Inhibition of cell proliferation of human U2OS cells over-expressing DDR1.
In experiment [7] the target is T1, Discoidin domain-containing receptor 2. Description: Inhibition of human DDR2 expressed in HEK293 cells assessed as reduction in collagen-2-induced DDR2 phosphorylation. In kind it is cell-based.
Experiment [8] shares this target. Briefly: Inhibition of human DDR2 expressed in HEK293 cells assessed as reduction in collagen-1-induced DDR2 tyrosine phosphorylation pre-incubated for 30 mins by immunoblotting method. The class given is cell-based. A general note: In western blotting, separated proteins are transferred to a membrane and probed.

Numbered stars: 1 amine (or outer) side, 2 acyl side, 3 side chain; on linkers, the order of the positions; unused ones are H or OH. Bridge positions count the residues as written; N and C are the ends. Square brackets hold non-standard residues; d marks the D form. Peptide text beside a SMILES is read from it. I, II: the chains in the order shown. Actinocin(9to1) = Cc1c2oc3c(C)ccc(C(=O)[*:1])c3nc-2c(C(=O)[*:2])c(N)c1=O; NMeV = CN[C@H](C(=O)O)C(C)C; Sar = CNCC(=O)O

Consider `Oc1cccc(Nc2ccnc3cc(-c4cccc(CN5CCOCC5)c4)sc23)c1`, for which the IC50 in experiment [1] was 145 nM; in experiment [2], 6 nM.
Turning to `CCc1ccc(C(=O)Nc2cc(CN3CCN(C)CC3)cc(C(F)(F)F)c2)cc1C#Cc1cnc2ccnn2c1`, the Kd in experiment [3] is 0.6 nM.
For the compound `CCN1CCN(Cc2ccc(C(=O)Nc3ccc(C)c(NCc4cnc5[nH]ccc5c4OC)c3)cc2C(F)(F)F)CC1`, the IC50 in experiment [4] amounted to 9 nM; in experiment [5], 47 nM.
The compound `CCS(=O)(=O)c1ccc(Cl)cc1CNC(=O)c1ccc(CN2CCN(C)CC2)c(C(F)(F)F)c1` registered an IC50 in experiment [6] of 440 nM.
Regarding `CNC(=O)c1cc(Oc2ccc(CNC(=O)Nc3cc(Cl)ccc3OC)cc2C)ccn1`, the IC50 in experiment [7] came to 30 nM.
Regarding `Cn1cc(C(F)(F)F)cc(NC(=O)NCc2ccc(Oc3ccnc4c3CNC(=O)N4)cc2)c1=O`, the IC50 in experiment [7] worked out at 15 nM.
Turning to `Cc1c2oc3c(C)ccc(C(=O)N[C@@H]4C(=O)N[C@H](C(C)C)C(=O)N5CCC[C@H]5C(=O)N(C)CC(=O)N(C)[C@@H](C(C)C)C(=O)O[C@@H]4C)c3nc-2c(C(=O)N[C@@H]2C(=O)N[C@H](C(C)C)C(=O)N3CCC[C@H]3C(=O)N(C)CC(=O)N(C)[C@@H](C(C)C)C(=O)O[C@@H]2C)c(N)c1=O` [DACTINOMYCIN] (I: T[dV]P[Sar][NMeV] / II: T[dV]P[Sar][NMeV]; ester I:1-I:C, II:1-II:C; linker I:N-II:N via Actinocin(9to1)), in experiment [8], the IC50 is 9 µM.

What is called IC50 is the concentration that gives 50% inhibition. The Kd is the constant that tells how readily two partners part at equilibrium. Lower therefore signals a tighter complex.
